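Step 1: Grow cells in 96-well plates. Step 2: Expose to compound for 48 hours at 5 concentrations. Step 3: Interpolate endpoints linearly; if unreached, use highest concentration. Abbreviation: GI50, concentration required for 50% inhibition of growth.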 Calls of active or inactive are those of the source. Cut-off read from the data, not from the text of the source: active = GI50 up to about 1.1 µM and inactive = higher.
How the values were obtained:
Test in all cases: growth of human tumour cells (NCI), 48 h
MOLT-4 = test system: MOLT-4
UACC-62 = test system: UACC-62
HL-60 = test system: HL-60
NCI-H23 = test system: NCI-H23
SF-295 = test system: SF-295
T47D = test system: T47D
SK-MEL-2 = test system: SK-MEL-2
EKVX = test system: EKVX
CCRF-CEM = test system: CCRF-CEM
SN12C = test system: SN12C
SF-539 = test system: SF-539
IGROV-1 = test system: IGROV-1
Malme-3M = test system: Malme-3M
NCI-H522 = test system: NCI-H522
SK-MEL-5 = test system: SK-MEL-5
HCC 2998 = test system: HCC 2998
SR = test system: SR
HCT-15 = test system: HCT-15
OVCAR-3 = test system: OVCAR-3
M14 = test system: M14

CC(C(O)c1ccccc1)C(O)(C(F)(F)F)C(F)(F)F (stereo not given)
GI50 (MOLT-4): > 100 µM (inactive) | GI50 (UACC-62): > 100 µM (inactive) | GI50 (HL-60): > 100 µM (inactive) | GI50 (NCI-H23): > 100 µM (inactive) | GI50 (SF-295): > 100 µM (inactive) | GI50 (T47D): > 100 µM (inactive) | GI50 (SK-MEL-2): > 100 µM (inactive) | GI50 (EKVX): > 100 µM (inactive) | GI50 (CCRF-CEM): > 100 µM (inactive) | GI50 (SN12C): > 100 µM (inactive) | GI50 (SF-539): > 100 µM (inactive) | GI50 (IGROV-1): 84.5 µM (inactive) | GI50 (Malme-3M): > 100 µM (inactive) | GI50 (NCI-H522): > 100 µM (inactive) | GI50 (SK-MEL-5): 49.7 µM (inactive) | GI50 (HCC 2998): > 100 µM (inactive) | GI50 (SR): > 100 µM (inactive) | GI50 (HCT-15): > 100 µM | GI50 (OVCAR-3): > 100 µM (inactive) | GI50 (M14): > 100 µM (inactive)

CN(C)Cc1cc(/N=N/c2c(Cl)cccc2Cl)ccc1O
GI50 (MOLT-4): 67.3 µM (inactive) | GI50 (UACC-62): 62.2 µM (inactive) | GI50 (HL-60): 68.4 µM (inactive) | GI50 (NCI-H23): 63.4 µM (inactive) | GI50 (SF-295): > 100 µM (inactive) | GI50 (T47D): 42.6 µM (inactive) | GI50 (SK-MEL-2): > 100 µM (inactive) | GI50 (EKVX): > 100 µM (inactive) | GI50 (CCRF-CEM): > 100 µM (inactive) | GI50 (SN12C): > 100 µM (inactive) | GI50 (SF-539): > 100 µM (inactive) | GI50 (IGROV-1): 61.4 µM (inactive) | GI50 (Malme-3M): 74.5 µM (inactive) | GI50 (NCI-H522): > 100 µM (inactive) | GI50 (SK-MEL-5): 17.5 µM (inactive) | GI50 (HCC 2998): > 100 µM (inactive) | GI50 (SR): 48.9 µM (inactive) | GI50 (HCT-15): > 100 µM | GI50 (OVCAR-3): 57.4 µM (inactive) | GI50 (M14): > 10 µM (inactive)

Reference: ChEMBL document CHEMBL1201862, “PubChem BioAssay data set” (2004)
